Columns and labels:
AsPo1 = test: Effect of PDTC on cell proliferation (IC50); format: cell-based; conditions: Pancreatic carcinoma cells, read-out: IC50 required to inhibit cellular proliferation or induce apoptosis
Method: (§1) The effect of PDTC on cellular proliferation or apoptosis was evaluated in a number of normal and cancer cell lines. The IC50 was measured as the concentration of PDTC that inhibited cellular proliferation.

BxPc3 = test: Effect of PDTC on cell proliferation (IC50); format: cell-based; conditions: Homo sapiens, BXPC-3, Pancreatic carcinoma cells, read-out: IC50 required to inhibit cellular proliferation or induce apoptosis
Method: as §1

Hs746T = test: Effect of PDTC on cell proliferation (IC50); format: cell-based; conditions: Homo sapiens, Gastric carcinoma cells, read-out: IC50 required to inhibit cellular proliferation or induce apoptosis
Method: as §1

Keratinocytes = test: Effect of PDTC on cell proliferation (IC50); format: cell-based; conditions: Homo sapiens, Keratinocyte, Normal cells, read-out: IC50 required to inhibit cellular proliferation or induce apoptosis
Method: as §1

MCF-10HRas = test: Effect of PDTC on cell proliferation (IC50); format: cell-based; conditions: Breast carcinoma cell, Breast carcinoma cells, read-out: IC50 required to inhibit cellular proliferation or induce apoptosis
Method: as §1

MCF-10WT = test: Effect of PDTC on cell proliferation (IC50); format: cell-based; conditions: Breast carcinoma cell, Breast carcinoma cells, read-out: IC50 required to inhibit cellular proliferation or induce apoptosis
Method: as §1

MCF-7 = test: Effect of PDTC on cell proliferation (IC50); format: cell-based; conditions: Homo sapiens, MCF7, Breast carcinoma cells, read-out: IC50 required to inhibit cellular proliferation or induce apoptosis
Method: as §1

MDA MB-468 = test: Effect of PDTC on cell proliferation (IC50); format: cell-based; conditions: Homo sapiens, Breast carcinoma cells, read-out: IC50 required to inhibit cellular proliferation or induce apoptosis
Method: as §1

MDA-MB231 = test: Effect of PDTC on cell proliferation (IC50); format: cell-based; conditions: Homo sapiens, MDA-MB-231, Breast carcinoma cells, read-out: IC50 required to inhibit cellular proliferation or induce apoptosis
Method: as §1

N-87 = test: Effect of PDTC on cell proliferation (IC50); format: cell-based; conditions: Gastric carcinoma cells, read-out: IC50 required to inhibit cellular proliferation or induce apoptosis
Method: as §1

[1] = test system: Non-transformed rat intestinal epithelial cells; test: Effect of PDTC on cell proliferation (IC50); format: cell-based; conditions: Normal cells, read-out: IC50 required to inhibit cellular proliferation or induce apoptosis
Method: as §1

PANC-1 = test: Effect of PDTC on cell proliferation (IC50); format: cell-based; conditions: Homo sapiens, Pancreatic carcinoma cells, read-out: IC50 required to inhibit cellular proliferation or induce apoptosis
Method: as §1

Primary colonocytes [2] = test: Effect of PDTC on cell proliferation (IC50); format: cell-based; conditions: Homo sapiens, Normal cells, read-out: IC50 required to inhibit cellular proliferation or induce apoptosis
Method: as §1

[3] = test system: Primary mammary epithelia; test: Effect of PDTC on cell proliferation (IC50); format: cell-based; conditions: Homo sapiens, Normal cells, read-out: IC50 required to inhibit cellular proliferation or induce apoptosis
Method: as §1

Saos-2 = test: Effect of PDTC on cell proliferation (IC50); format: cell-based; conditions: Homo sapiens, Osteosarcoma, read-out: IC50 required to inhibit cellular proliferation or induce apoptosis
Method: as §1

Primary colonocytes [4] = test: DNA fragmentation after PDTC treatment; format: cell-based, human; conditions: 70 μM
Wild Type p53 HCA-7 = test: DNA fragmentation after PDTC treatment; format: cell-based; conditions: 70 μM
HCT 116 = test: DNA fragmentation after PDTC treatment; format: cell-based, human; conditions: 70 μM
Mutant p53 HCT 15 = test: DNA fragmentation after PDTC treatment; format: cell-based, human; conditions: 70 μM
DLD-1 = test: DNA fragmentation after PDTC treatment; format: cell-based; conditions: 70 μM
DKO-3 = test: DNA fragmentation after PDTC treatment; format: cell-based; conditions: 70 μM
HCT 116 cells = test: Soft-agar colony formation (anchorage-independent growth); conditions: Homo sapiens, HCT-116, 240 h, read-out: approximate IC50 in soft agar
Method: (§2) FIG. 1A is a graph of the concentration of PDTC versus soft-agar forming units×10^6 HCT 15 and HCT 116 cells (as a percent of control). […] Soft-agar colony formation was measured by seeding HCT 116 or HCT 15 cells in soft agar supplemented with either medium alone (control), or increasing concentrations of pyrrolidinedithiocarbamate (25–200 μM) or vitamin E (0.1–10 mM). Colonies were scored at the end of 10 days incubation at 37° C. Values are representative of three experiments carried out in quadruplicate.
(§3) HCT 116 and HCT 15 cells were seeded in soft agar as described above containing increasing concentrations of either 5-FU (5×10^−8 to 5×10^−5 M) or doxorubicin (1×10^−9 to 1×10^−6 M), in the presence or absence of pyrrolidinedithiocarbamate (70 μM) or vitamin E (3 mM). Colonies were scored after 10 days and IC50 values were calculated as the concentration of 5-FU or doxorubicin required to reduce basal colony formation by 50% (±s.e.m.). Values are representative of three experiments carried out in quadruplicate.

HCT 15 cells = test: as above; conditions: Homo sapiens, HCT-15, 240 h, read-out: approximate IC50 in soft agar
Method: as §2, §3

HCT 15-derived tumors = test: HCT 15 tumor xenografts in athymic mice; format: in vivo; conditions: HCT 15-derived tumors, after 3 weeks of single agent treatment, before cross-over
Method: HCT 15-derived tumors were generated as described above. Animals were then treated with pyrrolidinedithiocarbamate, in the presence or absence of 5-FU, for 3 weeks. At this point, treatments were discontinued in animals receiving the combined treatment of pyrrolidinedithiocarbamate and 5-FU for 2 months. All other treatment groups received both 5-FU and pyrrolidinedithiocarbamate for the remaining 3 weeks.
Male athymic Balb/c nu/nu mice were obtained from the Harlan Sprague-Dawley Company at 4–6 weeks of age and were quarantined for at least 2 weeks before the study. […] HCT 116 and HCT 15 CRC cell lines were grown in DMEM supplemented with 10% FBS as described above. Cells were harvested through two consecutive trypsinizations, centrifuged at 300 g for 5 minutes, washed twice, and resuspended in sterile phosphate buffered saline. One ×10^6 cells in 0.2 ml were injected subcutaneously between the scapula of 7- to 10-week-old male nude mice.
Tumor volumes were estimated weekly by measuring the maximal length, width, and height. Once tumors reached a mean size of 120 to 150 mm^3, animals received either weekly i.p. injections of pyrrolidinedithiocarbamate (70 μM) or vitamin E (3 mM), 5-FU (40 mg/kg) or saline, or a combination of pyrrolidinedithiocarbamate or vitamin E and 5-FU or 6 weeks. In cross-over experiments, animals received the above treatments for three weeks (with the exception of vitamin E), and then were crossed-over to either the combination treatment of pyrrolidinedithiocarbamate and 5-FU (saline, pyrrolidinedithiocarbamate or 5-FU alone) or discontinued treatment pyrrolidinedithiocarbamate and 5-FU) for the remaining three weeks of the experiment. […] Tumor volumes were recorded weekly until termination of the study.
Tumor tissues were fixed overnight in 4% (v/v) paraformaldehyde and embedded in paraffin according to standard histological procedures. […] The proliferative index (BrDU) and the apoptotic index (TUNEL) were estimated by the percentage of cells scored under a microscope at 200-fold magnification.

[5] = test system: murine small intestine and the murine colon; conditions: mouse, in vivo

## S=C(S)N1CCCC1 [PDTC, pyrrolidinedithiocarbamate]
AsPo1
  IC50: 70 µM
BxPc3
  IC50: 100 µM
Hs746T
  IC50: 35 µM
Keratinocytes
  IC50: 600 µM
MCF-10HRas
  IC50: 5 µM
MCF-10WT
  IC50: 5 µM
MCF-7
  IC50: 13 µM
MDA MB-468
  IC50: 20 µM
MDA-MB231
  IC50: 10 µM
N-87
  IC50: 40 µM
[1]
  IC50: 450 µM
PANC-1
  IC50: 75 µM
Primary colonocytes [2]
  IC50: 500 µM
[3]
  IC50: 650 µM
Saos-2
  IC50: 10 µM
Primary colonocytes [4]; 3 h
  DNA Fragmentation after PDTC Treatment: 101 ± 10 % Control
Primary colonocytes [4]; 6 h
  DNA Fragmentation after PDTC Treatment: 109 ± 9 % Control
Primary colonocytes [4]; 12 h
  DNA Fragmentation after PDTC Treatment: 107 ± 10 % Control
Primary colonocytes [4]; 24 h
  DNA Fragmentation after PDTC Treatment: 130 ± 16 % Control
Wild Type p53 HCA-7; 3 h
  DNA Fragmentation after PDTC Treatment: 111 ± 13 % Control
Wild Type p53 HCA-7; 6 h
  DNA Fragmentation after PDTC Treatment: 126 ± 17 % Control
Wild Type p53 HCA-7; 12 h
  DNA Fragmentation after PDTC Treatment: 154 ± 19 % Control
Wild Type p53 HCA-7; 24 h
  DNA Fragmentation after PDTC Treatment: 302 ± 35 % Control
HCT 116; 3 h
  DNA Fragmentation after PDTC Treatment: 108 ± 11 % Control
HCT 116; 6 h
  DNA Fragmentation after PDTC Treatment: 131 ± 21 % Control
HCT 116; 12 h
  DNA Fragmentation after PDTC Treatment: 198 ± 23 % Control
HCT 116; 24 h
  DNA Fragmentation after PDTC Treatment: 367 ± 49 % Control
Mutant p53 HCT 15; 3 h
  DNA Fragmentation after PDTC Treatment: 145 ± 12 % Control
Mutant p53 HCT 15; 6 h
  DNA Fragmentation after PDTC Treatment: 259 ± 18 % Control
Mutant p53 HCT 15; 12 h
  DNA Fragmentation after PDTC Treatment: 673 ± 34 % Control
Mutant p53 HCT 15; 24 h
  DNA Fragmentation after PDTC Treatment: 979 ± 34 % Control
DLD-1; 3 h
  DNA Fragmentation after PDTC Treatment: 213 ± 17 % Control
DLD-1; 6 h
  DNA Fragmentation after PDTC Treatment: 296 ± 21 % Control
DLD-1; 12 h
  DNA Fragmentation after PDTC Treatment: 712 ± 34 % Control
DLD-1; 24 h
  DNA Fragmentation after PDTC Treatment: 876 ± 46 % Control
DKO-3; 3 h
  DNA Fragmentation after PDTC Treatment: 223 ± 11 % Control
DKO-3; 6 h
  DNA Fragmentation after PDTC Treatment: 478 ± 16 % Control
DKO-3; 12 h
  DNA Fragmentation after PDTC Treatment: 896 ± 23 % Control
DKO-3; 24 h
  DNA Fragmentation after PDTC Treatment: 1116 ± 54 % Control
HCT 116 cells
  IC50: ~70 µM
HCT 15 cells
  IC50: ~70 µM
HCT 15-derived tumors
  tumor size: 1325+210 mm^3
[5]
  toxicity of 5-FU: substantially reduces the toxicity of 5-FU
